The target in assay [1] is T1, PPP2R1A (Mus musculus, UniProt Q76MZ3).
T1 construct: full length, C-terminal 6xHis, E. coli (BL-21 or Arctic Express), about 65 kDa, isolated subunit; 893-PAL is the native protein in mouse FL5.12 / mPCE cells
As to the kind of experiment: thermal shift (DSF, SYPRO Orange). The class given is binding. To be noted: 5 µM protein, 10 mM NaH2PO4 pH 6.0, 25 mM NaCl, 1 mM β-mercaptoethanol; destabilising.

In assay [2] the target is T2, KPNB1.1 (Homo sapiens, UniProt Q14974).
T2 construct: amino acids 1-442 (N-terminal half), N-terminal 10xHis, codon-optimized, E. coli, about 44 kDa
T2 sequence (Q14974 1-442): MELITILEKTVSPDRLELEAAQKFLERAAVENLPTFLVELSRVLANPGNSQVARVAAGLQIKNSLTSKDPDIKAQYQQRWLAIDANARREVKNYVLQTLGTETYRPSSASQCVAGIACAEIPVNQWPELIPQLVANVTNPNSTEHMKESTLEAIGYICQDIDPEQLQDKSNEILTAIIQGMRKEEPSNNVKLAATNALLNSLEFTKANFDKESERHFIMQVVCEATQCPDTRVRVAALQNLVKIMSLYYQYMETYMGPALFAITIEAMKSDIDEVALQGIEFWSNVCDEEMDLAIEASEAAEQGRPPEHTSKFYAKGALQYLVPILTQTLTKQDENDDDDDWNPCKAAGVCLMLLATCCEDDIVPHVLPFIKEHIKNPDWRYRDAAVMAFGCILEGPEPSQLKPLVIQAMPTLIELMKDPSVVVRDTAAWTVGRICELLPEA
As to the kind of experiment: thermal shift (DSF, SYPRO Orange). Format: binding. To be noted: 5 µM protein, 10 mM NaH2PO4 pH 6.0, 25 mM NaCl, 1 mM β-mercaptoethanol; destabilising.

Assay [3] has as its target T1, PPP2R1A. As to the kind of experiment: thermal shift (DSF, SYPRO Orange); also CD. The class given is binding. To be noted: 5 µM protein, 10 mM NaH2PO4 pH 6.0, 25 mM NaCl, 1 mM β-mercaptoethanol; destabilising, reversible on dialysis.
Assay [4] addresses T2, KPNB1.1. As to the kind of experiment: thermal shift (DSF, SYPRO Orange); also CD. The class given is binding. To be noted: 5 µM protein, 10 mM NaH2PO4 pH 6.0, 25 mM NaCl, 1 mM β-mercaptoethanol; destabilising, reversible on dialysis.
The test system of the next assay is FL5.12. The assay can be described thus: cells. Also noted: cytotoxicity / viability IC50 in FL5.12 cells at 48 h. To be noted: Mus musculus, FL5.12, 48 h.

Broadly, the IC50 is the concentration needed to halve the response being measured. A higher IC50 goes with lower potency.

T1 sequence (Q76MZ3 2-589): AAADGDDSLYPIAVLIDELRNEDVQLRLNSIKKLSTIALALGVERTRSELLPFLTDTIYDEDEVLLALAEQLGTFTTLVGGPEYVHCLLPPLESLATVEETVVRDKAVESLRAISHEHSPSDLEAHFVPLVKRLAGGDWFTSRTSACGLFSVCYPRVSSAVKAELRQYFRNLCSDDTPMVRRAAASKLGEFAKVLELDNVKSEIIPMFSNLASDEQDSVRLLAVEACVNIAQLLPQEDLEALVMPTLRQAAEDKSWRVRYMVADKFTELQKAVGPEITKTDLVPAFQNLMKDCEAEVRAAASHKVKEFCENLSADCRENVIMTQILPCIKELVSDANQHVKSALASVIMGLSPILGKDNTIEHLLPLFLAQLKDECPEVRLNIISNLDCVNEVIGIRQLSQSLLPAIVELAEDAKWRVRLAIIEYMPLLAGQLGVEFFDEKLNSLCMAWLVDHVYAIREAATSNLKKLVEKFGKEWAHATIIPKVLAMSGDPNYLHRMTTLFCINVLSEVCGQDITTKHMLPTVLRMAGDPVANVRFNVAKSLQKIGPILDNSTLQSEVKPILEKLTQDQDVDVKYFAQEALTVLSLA

On to `CCCCCCCCCCCCC/C=C/[C@@H](O)[C@@H](N)CO` [sphingosine], for which the dTm result on PPP2R1A [1] was “sphingosine triggered conformational changes in both PPP2R1A and KPNB1”; at KPNB1.1 [2], “sphingosine triggered conformational changes in both PPP2R1A and KPNB1”.
As for `CCCCCCCCCCCCCCC[C@H](O)[C@@H](N)CO` [safingol], the dTm result at PPP2R1A [1] is “safingol and dimethylsphingosine (DMS) induced conformational changes in PPP2R1A and KPNB1”; at KPNB1.1 [2], “safingol and dimethylsphingosine (DMS) induced conformational changes in PPP2R1A and KPNB1”.
On to `CCCCCCCCc1ccc([C@H]2CCN[C@@H]2CO)cc1` [SH-BC-893], for which the dTm result is “SH-BC-893, FTY720, and the natural sphingolipid phytosphingosine reduced rather than increased the Tm of both” on PPP2R1A [3]; “SH-BC-893, FTY720, and the natural sphingolipid phytosphingosine reduced rather than increased the Tm of both” at KPNB1.1 [4]. The compound further gave an IC50 with FL5.12 of 2000 nM.
Consider `CCCCCCCCc1ccc(CCC(N)(CO)CO)cc1` [FTY720], for which the dTm entry is “SH-BC-893, FTY720, and the natural sphingolipid phytosphingosine reduced rather than increased the Tm of both” on PPP2R1A [1]; “SH-BC-893, FTY720, and the natural sphingolipid phytosphingosine reduced rather than increased the Tm of both” on KPNB1.1 [2].
In the case of `CCCCCCCCCCCCCC[C@@H](O)[C@@H](O)[C@@H](N)CO` [phytosphingosine], the dTm entry on PPP2R1A [1] was “SH-BC-893, FTY720, and the natural sphingolipid phytosphingosine reduced rather than increased the Tm of both”; on KPNB1.1 [2] it was “SH-BC-893, FTY720, and the natural sphingolipid phytosphingosine reduced rather than increased the Tm of both”. Besides, in the assay on FL5.12, 3200 nM corresponded to half-maximal inhibition (IC50).
`CCCCCCCCCCCCC/C=C/[C@@H](O)[C@H](CO)N(C)C` [dimethylsphingosine]: the dTm result on PPP2R1A [1] was “safingol and dimethylsphingosine (DMS) induced conformational changes in PPP2R1A and KPNB1”; at KPNB1.1 [2], “safingol and dimethylsphingosine (DMS) induced conformational changes in PPP2R1A and KPNB1”.
